For the test, the target named is T1, TRPC5 (Homo sapiens, UniProt Q9UL62).
T1 construct: expressed in transfected cells; host or cells: HEK293 TREx (inducible expression, induced 20-48 hours)
T1 sequence (Q9UL62 1-973): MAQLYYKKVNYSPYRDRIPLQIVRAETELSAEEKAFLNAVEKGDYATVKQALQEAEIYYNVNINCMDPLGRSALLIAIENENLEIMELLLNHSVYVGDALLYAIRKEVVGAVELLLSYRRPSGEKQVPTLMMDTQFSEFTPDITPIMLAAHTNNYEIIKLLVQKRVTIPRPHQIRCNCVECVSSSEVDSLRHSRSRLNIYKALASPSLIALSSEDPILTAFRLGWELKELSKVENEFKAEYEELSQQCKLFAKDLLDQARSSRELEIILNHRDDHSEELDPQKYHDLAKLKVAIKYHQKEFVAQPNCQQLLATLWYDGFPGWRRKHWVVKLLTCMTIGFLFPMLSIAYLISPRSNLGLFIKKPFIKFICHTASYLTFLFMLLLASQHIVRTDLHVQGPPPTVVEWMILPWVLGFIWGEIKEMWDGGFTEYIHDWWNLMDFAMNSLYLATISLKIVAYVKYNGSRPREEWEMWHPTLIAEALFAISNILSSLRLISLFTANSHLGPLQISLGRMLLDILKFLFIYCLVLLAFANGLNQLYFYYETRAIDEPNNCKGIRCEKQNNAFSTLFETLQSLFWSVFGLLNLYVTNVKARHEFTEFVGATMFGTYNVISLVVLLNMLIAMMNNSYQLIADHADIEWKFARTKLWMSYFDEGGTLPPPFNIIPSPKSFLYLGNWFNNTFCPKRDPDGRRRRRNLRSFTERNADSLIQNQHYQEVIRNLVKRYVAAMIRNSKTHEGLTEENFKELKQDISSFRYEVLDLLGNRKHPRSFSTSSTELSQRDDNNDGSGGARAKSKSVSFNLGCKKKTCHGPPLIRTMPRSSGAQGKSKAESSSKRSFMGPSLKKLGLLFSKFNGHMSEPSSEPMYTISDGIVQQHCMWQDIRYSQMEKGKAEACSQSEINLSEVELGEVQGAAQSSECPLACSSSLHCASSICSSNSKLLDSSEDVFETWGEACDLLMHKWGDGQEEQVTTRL
The test is described as follows: Assay A: Determination of TRPC5-Inhibition (whole-cell patch clamp). The test is classed as cell-based. Particulars: compounds of the present invention, TRPC5-expressing HEK293 TREx cells, current activated by LaCl3. The text has this:
Assay A: Determination of TRPC5-Inhibition
Patch clamp experiments permit the detection of currents through the TRPC5 channel in a cell line. In normal whole-cell patch clamp recordings, a glass electrode is brought into contact with a single cell and a high-resistance (gigaohm) seal is established with the cell membrane. The membrane is then ruptured to achieve the whole-cell configuration, permitting control of the voltage of the cell membrane and measurement of currents flowing across the membrane using the amplifier attached to the electrode and resulting in the replacement of cytoplasm with the pipette solution. A perfusion system permits control of the extracellular solution, including the addition of blockers and activators of the current. The current can be activated by including 1.4 μM free Ca2+ in the pipette (intracellular) solution, and 80 μM LaCl3 in the extracellular solution.
TRPC5 cells were induced 20-48 hours, removed from growth plates, and replated at low density (to attain good single-cell physical separation) on glass coverslips for measurement. In some cases, cells were grown in low density overnight on glass coverslips. Patch clamp recordings were made in the whole-cell mode with a holding potential of −40 mV. Every 5 seconds, a voltage ramp was applied from −120 to +100 mV, 400 ms in duration. Currents elicited were quantified at −80 mV and +80 mV. The internal solution consisted of 140 mM cesium aspartate, 10 mM HEDTA, 2 mM CaCl2, 2.27 mM MgCl2 and 10 mM HEPES, pH 7.2, with 1,400 nM calculated free Ca2+. The external solution consisted of 150 mM NaCl, 4.5 mM 15 KCl, 1 mM MgCl2, 2 mM CaCl2, 10 mM HEPES, 10 mM glucose, 1 mM EGTA, pH 7.4. Upon addition of LaCl3, TRPC5 current was induced only in TRPC5-expressing cells and not in parental HEK293 TREx cells. Removal of the LaCh stimulus causes most of the current to go away. Potential blockers were tested for ability to block both inward and outward currents in the continued presence of LaCl3.
IC50 of a compound of the invention was estimated by testing the compound 500 nM. […] Compounds blocking 50% or more at 500 nM are retested at multiple concentrations, and the % block is fitted by standard equations to determine […] accurately, using a […] concentration-response experiment.
Molecule `CCn1c(=O)n(CCCO)c(=O)c2c1nc(-c1ncc(OC3CCC3C)nc1C)n2Cc1ccc(Cl)cc1` (stereo not drawn) [Example 1] registered an IC50 of 0.172 nM.
`Cc1nc(OC2CCC2)cnc1-c1nc2c(c(=O)n(CCCO)c(=O)n2C(C)C)n1Cc1ccccc1` [Example 2] showed an IC50 of 0.207 nM.
The molecule `CCn1c(=O)n(CCCO)c(=O)c2c1nc(-c1cnc(OC3CCC3)cn1)n2Cc1ccc(F)cc1` [Example 3] registered an IC50 of 0.506 nM.
The figure for `CCn1c(=O)n(CCCO)c(=O)c2c1nc(-c1cnc(OC3CCC3)cn1)n2Cc1ccccc1` [Example 4] is 1.11 nM; for `CCn1c(=O)n(CCCO)c(=O)c2c1nc(-c1ncc(OC3CCC3C)nc1C)n2Cc1ccc(F)cc1` (stereo not drawn) [Example 5] it is 0.29 nM.
As for `CCn1c(=O)n(CCCO)c(=O)c2c1nc(-c1ncc(OC3CCC3)nc1C)n2Cc1ccccc1` [Example 6], the IC50 was found to be 1.22 nM.

For the origin of these results see US12291532B2, “Substituted xanthines as modulators of TRPC5 activity” (Boehringer Ingelheim International GmbH, priority 2018, dated 2025).
